Test systems include KM-20L2; DMS-114; M19-MEL; DMS-273; LXFL 529; XF498; HOP-18; DLD-1; RXF 631.
Assay in all cases: DTP human tumour cell line panel, 48 h

Several values for one entry are separate records, joined by “and”; a condition that tells them apart may be missing. Identical values can stand only once.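 Results reflect a 48-hour exposure of cells in 96-well plates to compound at five concentrations. GI50 = concentration required for 50% inhibition of growth.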 Activity calls are given as the source filed them. Rule as the data show it: active = GI50 up to about 1.1 µM and inactive = higher.

In the case of `Cc1cc(C)c([O-])c(-[n+]2c(-c3ccccc3)cc(-c3ccccc3)cc2-c2ccccc2)c1`, the GI50 (usually the concentration that inhibits growth by half) with KM-20L2 is 2.65 µM (inactive); in the assay with DMS-114 it was 3.05 µM (inactive); with M19-MEL it was 3.88 µM (inactive); with DMS-273, 3.24 µM (inactive); with LXFL 529, 2.35 µM (inactive); in the assay with XF498 it was 2.15 µM (inactive). The values for the GI50 with HOP-18, with DLD-1 and in the assay on RXF 631 were 5.31 µM (inactive), 5.19 µM (inactive) and 10.2 µM (inactive), respectively.
For the compound `CC[C@]1(O)C(=O)OCc2c1cc1n(c2=O)Cc2cc3c(N)cccc3nc2-1`, the GI50 with KM-20L2, with DMS-114, in the assay with M19-MEL, with DMS-273, in the assay with LXFL 529 and with XF498 was > 100 µM (inactive) each time. In addition, the GI50 with HOP-18, with DLD-1 and with RXF 631 was > 100 µM (inactive) each time.
Regarding `COc1cc2c(cc1C)[n+]([O-])c(C)c(C(=O)C/C(=N/NC(=O)C[N+](C)(C)C)C(=O)Nc1cccc(Cl)c1C)[n+]2[O-]`, the GI50 in the assay with KM-20L2, in the assay with DMS-114, in the assay with DMS-273, in the assay on LXFL 529, with XF498 and with HOP-18 was > 100 µM (inactive) in each case. For the same compound, the GI50 in the assay on DLD-1 and in the assay with RXF 631 was > 100 µM (inactive) in each case.
Consider `O=C(CC(=O)n1nc(-c2ccccc2)c(/N=N/c2ccc([N+](=O)[O-])cc2)c1-c1ccccc1)Nc1ccc(Cl)cc1`, for which the GI50 is 3.25 µM (inactive) in the assay with KM-20L2; 5.92 µM (inactive) in the assay on DMS-114; 35.6 µM (inactive) in the assay on M19-MEL; 19.9 µM (inactive) in the assay with DMS-273; 8.73 µM (inactive) in the assay on LXFL 529; 26.2 µM (inactive) in the assay with XF498. For the same compound, the GI50 in the assay with HOP-18 was 26.4 µM (inactive); with DLD-1, 22 µM (inactive); in the assay on RXF 631, 55.6 µM (inactive).
Regarding `CC(C)N1CC2CC(CN(C(=O)c3ccc(Cl)cc3)C2)C1`, the GI50 in the assay on KM-20L2, in the assay with DMS-114, with M19-MEL, with DMS-273, in the assay on LXFL 529 and in the assay with XF498 was > 100 µM (inactive) in each case. The GI50 in the assay with HOP-18 and with RXF 631 was > 100 µM (inactive) each time.
Take `Cc1cc(C)c(C(=O)C(C)C(c2ccccc2)c2ccc(Cl)cc2)c(C)c1` (stereo not drawn): the GI50 in the assay on DMS-114 was > 100 µM (inactive) and 76.7 µM (inactive); with M19-MEL, 43.9 µM (inactive) and 33.3 µM (inactive); in the assay with LXFL 529 it was 63.5 µM (inactive); in the assay on XF498 it was 61.2 µM (inactive) and 33.3 µM (inactive); in the assay with HOP-18, > 100 µM (inactive); with DLD-1, > 100 µM (inactive). Also, in the assay with RXF 631, the GI50 was > 100 µM (inactive) and 95.1 µM (inactive).
Turning to `Cc1c2cc[n+](C)cc2c(C)c2c1[nH]c1ccc(O)c(OCC(F)(F)F)c12`, the GI50 in the assay with KM-20L2 was 7.13 µM (inactive); with DMS-114, 0.938 µM (active); in the assay on M19-MEL, 2.42 µM (inactive); in the assay on DMS-273, 1.58 µM (inactive); in the assay with LXFL 529, 0.807 µM (active); in the assay with XF498, 1.2 µM (inactive). The GI50 in the assay with DLD-1 is 2.34 µM (inactive); in the assay on RXF 631, 2.78 µM (inactive).
